Measurements taken from patent US7495027B2, “3-aryl-4-hydroxyfuranone compounds and the human and animal health use thereof” (Wyeth, priority 2003, dated 2009).
In brackets after ≈: the same amount, converted by molar mass. Like-named read-outs stand apart in the source and are kept apart here.

Experiments:
[1] = system: Streptococci; experiment: Minimum inhibitory concentration, microdilution broth method, streptococci; assay type: cell-based; conditions: Mueller-Hinton broth with 5% horse blood, 18-22 hours at 35° C.; for MIC: S. pneumo GC 1894
Summary of the method: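 Recent clinical isolates, some resistant to methicillin, penicillin and/or vancomycin, were tested by the broth microdilution method of NCCLS Approved Standard M7-A5 2000. Mueller-Hinton broth served for staphylococci and enterococci, while streptococci received the same broth supplemented with 5% horse blood.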

[2] = target: T1, S. aureus Uridine-diphosphate-N-acetylmuramoyl-L-alanine: D-glutamate liease, MurD (Staphylococcus aureus, UniProt Q2FZ92); experiment: biochemical; conditions: (S) S. aureus enzyme
T1 sequence (Q2FZ92 1-449): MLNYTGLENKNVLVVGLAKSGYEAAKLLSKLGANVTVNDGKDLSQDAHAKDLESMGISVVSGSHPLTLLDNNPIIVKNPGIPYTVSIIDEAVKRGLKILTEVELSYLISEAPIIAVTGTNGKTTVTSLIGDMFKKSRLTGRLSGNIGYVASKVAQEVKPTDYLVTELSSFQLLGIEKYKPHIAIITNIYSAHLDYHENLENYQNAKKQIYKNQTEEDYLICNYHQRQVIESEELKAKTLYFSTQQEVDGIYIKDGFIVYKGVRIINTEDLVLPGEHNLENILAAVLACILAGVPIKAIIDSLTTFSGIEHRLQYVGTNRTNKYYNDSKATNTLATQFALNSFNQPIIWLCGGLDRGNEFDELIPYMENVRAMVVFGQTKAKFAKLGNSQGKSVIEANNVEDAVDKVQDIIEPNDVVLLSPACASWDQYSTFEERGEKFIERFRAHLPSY
Summary of the method: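 Test solutions, 10 mg/mL stocks in DMSO, were brought to 100 μg/mL with 50 mM Tris/HCl (pH 8.5). Their inhibition of MurD, the enzyme of the fourth cell wall biosynthesis step, was measured.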

[3] = target: E. coli UDP-N-acetylglucosamine enolpyruvoyl transferase, MurA (Escherichia coli, UniProt P0A749); experiment: biochemical; conditions: (E) E. coli enzyme
Sequence of E. coli UDP-N-acetylglucosamine enolpyruvoyl transferase, MurA (P0A749 whole entry): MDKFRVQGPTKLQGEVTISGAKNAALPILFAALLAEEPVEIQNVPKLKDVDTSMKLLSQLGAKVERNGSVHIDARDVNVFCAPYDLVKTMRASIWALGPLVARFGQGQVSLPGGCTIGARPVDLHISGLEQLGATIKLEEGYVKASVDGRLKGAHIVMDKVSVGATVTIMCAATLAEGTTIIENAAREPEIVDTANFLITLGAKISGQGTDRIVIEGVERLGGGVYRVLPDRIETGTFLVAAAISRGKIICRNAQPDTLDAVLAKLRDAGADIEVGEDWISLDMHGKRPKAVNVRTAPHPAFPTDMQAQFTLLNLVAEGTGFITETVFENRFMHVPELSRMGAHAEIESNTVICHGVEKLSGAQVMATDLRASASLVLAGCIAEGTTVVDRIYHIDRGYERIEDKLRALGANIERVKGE
Summary of the method: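 Enzyme in 50 mM Tris/HCl pH 8.0 with 5 mM DTT and 20% glycerol was pre-incubated 10 min at 37° C with test compound in DMSO/water. Tris/BME and assay buffer then started the 1 hr, 37° C reaction, with a baseline 340 nm reading taken at start. Stop solution followed, and colour developed 30 minutes.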

[4] = target: E. coli Uridine-diphosphate-N-acetylmuramoyl-L-alanine: D-glutamate liease, MurD (Escherichia coli, UniProt P14900); experiment: biochemical; conditions: (E) E. coli enzyme
Sequence of E. coli Uridine-diphosphate-N-acetylmuramoyl-L-alanine: D-glutamate liease, MurD (P14900 whole entry): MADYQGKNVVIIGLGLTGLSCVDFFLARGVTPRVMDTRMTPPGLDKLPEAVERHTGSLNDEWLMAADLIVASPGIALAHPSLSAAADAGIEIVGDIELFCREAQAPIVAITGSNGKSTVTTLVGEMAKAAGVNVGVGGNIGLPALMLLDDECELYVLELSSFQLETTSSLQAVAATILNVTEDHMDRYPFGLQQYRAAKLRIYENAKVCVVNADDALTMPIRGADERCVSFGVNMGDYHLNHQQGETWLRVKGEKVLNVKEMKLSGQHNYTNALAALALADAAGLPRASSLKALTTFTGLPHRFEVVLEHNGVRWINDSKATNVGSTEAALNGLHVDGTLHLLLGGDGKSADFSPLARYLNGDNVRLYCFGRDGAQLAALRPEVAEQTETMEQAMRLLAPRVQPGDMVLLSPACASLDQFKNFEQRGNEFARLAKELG
Summary of the method: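 Compound working solutions reach 100 μg/mL in 50 mM Tris/HCl (pH 8.5) after dilution of 10 mg/mL DMSO stocks; final level in the well not given here. Reaction buffer finals: 2 mM ATP, 50 mM MgCl2, 83 mM Tris/HCl, pH 8.0.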

[5] = target: E. coli Uridine-diphosphate-N-acetvimuramoyl: L-alanine lipase, MurC (Escherichia coli, UniProt P17952); experiment: Inhibitory activity against MurC (E. coli); assay type: biochemical
Sequence of E. coli Uridine-diphosphate-N-acetvimuramoyl: L-alanine lipase, MurC (P17952 whole entry): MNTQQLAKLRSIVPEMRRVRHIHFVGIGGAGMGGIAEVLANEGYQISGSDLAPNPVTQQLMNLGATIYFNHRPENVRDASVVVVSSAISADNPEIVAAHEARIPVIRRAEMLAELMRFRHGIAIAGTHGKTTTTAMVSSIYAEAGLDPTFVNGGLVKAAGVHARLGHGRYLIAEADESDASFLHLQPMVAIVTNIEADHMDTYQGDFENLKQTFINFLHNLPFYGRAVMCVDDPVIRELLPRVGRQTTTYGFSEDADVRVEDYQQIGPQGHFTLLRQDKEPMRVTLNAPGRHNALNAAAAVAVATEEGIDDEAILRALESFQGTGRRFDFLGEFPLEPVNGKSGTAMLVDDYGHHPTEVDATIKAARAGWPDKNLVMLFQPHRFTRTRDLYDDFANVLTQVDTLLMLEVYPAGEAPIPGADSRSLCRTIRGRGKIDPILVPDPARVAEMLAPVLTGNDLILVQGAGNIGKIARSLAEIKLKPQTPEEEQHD

[6] = (E) E. coli enzyme, read-out: MurC IC50 (converted)

Compound	MIC [1] [µg/mL]	IC50 [2] [µM]	IC50 [3] [µM]	IC50 [4] [µM]	IC50 [5, 6] [µM]	MurC IC50 ([5]; (E) E. coli enzyme) [µg/mL]	MurA IC50 [3]	MurD IC50 [4] [µg/mL]	IC50 ([5]; MurC IC50, (E) E. coli enzyme) [µM]	MIC S. pneumo GC 1894 [1] [µg/mL]	MurD IC50 [2] [µg/mL]
O=C1O/C(=C\c2ccc(-c3ccccc3)cc2)C(O)=C1c1ccc(Cl)cc1 [Example 53]	0.5 (≈ 1.33 µM)	42.7	> 66.7	13.3	13.3						
O=C1O/C(=C\c2ccc(-c3ccccc3)cc2)C(O)=C1c1cccc(C(F)(F)F)c1 [Example 10]	< 0.125	31.8	2.45	51.4	9.79						
O=C1O/C(=C\C2CCCCC2)C(O)=C1c1ccc2ccccc2c1 [Example 51]	< 0.125	> 78	> 78	> 78		9					
O=C1O/C(=C\c2ccc(-c3cc(Cl)cc(Cl)c3)cc2)C(O)=C1c1cc(Cl)cc(Cl)c1	< 0.125	> 52.3				17	1 (E) μg/mL	6			
O=C1O/C(=C\C2CCCCC2)C(O)=C1c1ccc(Cl)cc1 [Example 15]	0.5 (≈ 1.64 µM)	> 82	> 82	> 82	55.8						
O=C1O/C(=C\c2ccc(-c3ccc(Cl)cc3)cc2)C(O)=C1c1ccc(Cl)cc1 [R=H, R1=4-Cl—C6H4, R2=4-(4′-Cl-biphenyl)]	< 0.125	19.5	14.7	14.7					29.3		
O=C1O/C(=C\c2ccc(-c3cccc(C(F)(F)F)c3)cc2)C(O)=C1c1cccc(C(F)(F)F)c1						11	>25 (E) μg/mL	24		<0.125	15
O=C1O/C(=C\c2cccc(-c3cccc(Cl)c3)c2)C(O)=C1c1cccc(Cl)c1 [Example 134]	1 (≈ 2.44 µM)	19.5				5	5 (E) μg/mL	6			
O=C1O/C(=C\c2ccc(C(F)(F)F)cc2)C(O)=C1c1ccc(-c2ccccc2)cc1 [R=H, R1=4-(biphenyl), R2=4-CF3—C6H4]	< 0.125	> 61.2	46.5	29.4					12.2		
O=C1O/C(=C\c2ccc(-c3ccccc3)cc2)C(O)=C1c1cc(Cl)cc(Cl)c1 [Example 67]	< 0.125	19.5	7.33	22	14.7						
O=C1O/C(=C\c2ccc3ccccc3c2)C(O)=C1c1ccc2ccccc2c1 [Example 52]	0.5 (≈ 1.37 µM)	54.9	> 68.6	63.1	46.7						
O=C1O/C(=C\c2ccc3ccccc3c2)C(O)=C1c1cccc2ccccc12 [Example 56]	4 (≈ 11 µM)	52.1	> 68.6	> 68.6	13.7						
O=C1O/C(=C\c2cccc3ccccc23)C(O)=C1c1cccc2ccccc12 [Example 47]	16 (≈ 43.9 µM)	> 68.6	> 68.6	> 68.6	30.2						
O=C1O/C(=C\c2ccc3ccccc3c2)C(O)=C1c1ccc(Cl)cc1 [Example 54]	< 0.125	> 71.7	> 71.7	> 71.7	14.3						
O=C1O/C(=C\c2ccc(-c3ccccc3)cc2)C(O)=C1c1cccc(Cl)c1 [Example 69]	0.25 (≈ 0.667 µM)	18.7	21.3	50.7							
Cc1ccc(C=C2OC(=O)C(c3ccc(Cl)cc3)=C2O)s1 (mixture of isomers) [Example 13]						4	0.5 (E) μg/mL	> 25		2	20
O=C1O/C(=C\c2cccc3ccccc23)C(O)=C1c1ccc(-c2ccccc2)cc1 [R=H, R1=4-biphenyl, R2=1-naphthyl]	1 (≈ 2.56 µM)	38.4	58.9	> 64					15.4		
O=C1OC(=Cc2ccc(-c3ccccc3)cc2)C(O)=C1c1cccc(C(F)(F)F)c1 (mixture of isomers) [Example 11]						4	1 (E) μg/mL	21		<0.125	11
O=C1O/C(=C\c2ccc(Cl)cc2)C(O)=C1c1ccc2ccccc2c1 [Example 43]	1 (≈ 2.87 µM)	> 71.7	57.3	> 71.7	11.5						
O=C1O/C(=C\C2CCCCC2)C(O)=C1c1ccc(-c2ccccc2)cc1 [Example 100]	64 (≈ 185 µM)	69.3	> 72.2	> 72.2	37.5						
Cc1ccc(/C=C2\OC(=O)C(c3ccc(-c4ccccc4)cc3)=C2O)s1 [Example 104]	0.5 (≈ 1.39 µM)	> 69.4	> 69.4	> 69.4	13.9						
O=C1O/C(=C\c2cccnc2)C(O)=C1c1ccc(-c2ccccc2)cc1 [Example 101]	64 (≈ 187 µM)	> 73.2	67.4	> 73.2	52.7						
